Test results from ChEMBL document CHEMBL1137187, “Isoindolinone ureas: a novel class of KDR kinase inhibitors” (Bioorg Med Chem Lett, 2004).

Tests used:
[1] = biological target: Vascular endothelial growth factor receptor 2 (Homo sapiens, UniProt P35968); test: Inhibition of Vascular endothelial growth factor receptor 2 (KDR)
NIH3T3 = test: inhibitory activity of the Compound against NIH3T3 Cell lines; format: functional, cell-based; details: Mus musculus

Vascular endothelial growth factor receptor 2, sequence (P35968 whole entry): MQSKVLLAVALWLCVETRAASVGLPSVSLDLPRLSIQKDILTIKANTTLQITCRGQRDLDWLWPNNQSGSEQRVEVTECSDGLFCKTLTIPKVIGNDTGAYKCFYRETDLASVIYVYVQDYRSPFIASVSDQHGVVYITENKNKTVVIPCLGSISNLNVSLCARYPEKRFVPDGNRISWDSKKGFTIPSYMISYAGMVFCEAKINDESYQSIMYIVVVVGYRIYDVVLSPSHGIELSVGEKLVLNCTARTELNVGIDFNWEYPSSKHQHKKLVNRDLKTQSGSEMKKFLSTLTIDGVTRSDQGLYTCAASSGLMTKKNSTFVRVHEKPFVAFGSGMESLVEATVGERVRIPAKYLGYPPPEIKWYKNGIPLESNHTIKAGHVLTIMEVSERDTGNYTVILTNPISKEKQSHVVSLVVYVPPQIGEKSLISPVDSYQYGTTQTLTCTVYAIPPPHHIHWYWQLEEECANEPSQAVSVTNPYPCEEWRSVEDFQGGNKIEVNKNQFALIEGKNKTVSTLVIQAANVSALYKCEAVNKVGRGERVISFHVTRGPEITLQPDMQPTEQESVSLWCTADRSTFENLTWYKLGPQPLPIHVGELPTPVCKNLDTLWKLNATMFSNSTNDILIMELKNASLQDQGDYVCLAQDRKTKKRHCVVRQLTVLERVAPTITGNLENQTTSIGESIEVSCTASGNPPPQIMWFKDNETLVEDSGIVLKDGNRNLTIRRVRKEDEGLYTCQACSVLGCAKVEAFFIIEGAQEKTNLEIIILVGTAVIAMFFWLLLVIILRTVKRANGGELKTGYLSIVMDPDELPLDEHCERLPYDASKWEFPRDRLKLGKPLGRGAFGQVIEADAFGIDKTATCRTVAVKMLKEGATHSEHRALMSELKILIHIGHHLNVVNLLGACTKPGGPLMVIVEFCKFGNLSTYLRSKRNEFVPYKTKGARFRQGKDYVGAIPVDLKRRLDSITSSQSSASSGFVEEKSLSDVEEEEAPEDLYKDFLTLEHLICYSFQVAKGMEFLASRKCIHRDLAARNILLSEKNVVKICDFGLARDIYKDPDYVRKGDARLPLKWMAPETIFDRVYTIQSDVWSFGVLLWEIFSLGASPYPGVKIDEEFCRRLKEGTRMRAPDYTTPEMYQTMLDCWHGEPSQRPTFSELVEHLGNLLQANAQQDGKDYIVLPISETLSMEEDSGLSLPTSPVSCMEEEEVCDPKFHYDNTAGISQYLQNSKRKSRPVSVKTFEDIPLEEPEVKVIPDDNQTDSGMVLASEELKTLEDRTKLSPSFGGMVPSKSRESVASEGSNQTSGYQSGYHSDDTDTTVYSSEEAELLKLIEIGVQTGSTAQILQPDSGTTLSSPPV

Row | SMILES | IC50 [1] [µM] | IC50 (NIH3T3) [µM]
1 | Cc1ccc(NC(=O)Nc2ccc(-c3cccc4c3CNC4=O)cc2)cc1 | 0.43 | –
2 | O=C(Nc1ccc(-c2cccc3c2CNC3=O)cc1)Nc1cccc(Cl)c1 | 0.046 | –
3 | O=C(Nc1ccc(-c2cccc3c2CNC3=O)cc1)Nc1cccc(F)c1 | 0.52 | –
4 | Cc1cccc(NC(=O)Nc2ccc(-c3ccc(NC(=O)c4ccccc4)c4c3CNC4=O)cc2)c1 | 0.47 | –
5 | Cc1cccc(NC(=S)Nc2ccc(-c3cccc4c3CNC4=O)cc2)c1 | 10 | –
6 | Cc1cccc(NC(=O)Nc2ccc(-c3cccc4c3CNC4=O)cc2C(F)(F)F)c1 | 0.034 | –
7 | Cc1cccc(CC(=O)Nc2ccc(-c3cccc4c3CNC4=O)cc2)c1 | > 50 | –
8 | Cc1cccc(NC(=O)Nc2ccc(-c3ccc(N)c4c3CNC4=O)cc2)c1 | 0.014 | –
9 | Cc1cccc(NC(=O)Nc2ccc(-c3cccc4c3CNC4=O)cc2C)c1 | – | 0.068
10 | CC(=O)Nc1ccc(-c2ccc(NC(=O)Nc3cccc(C)c3)cc2)c2c1C(=O)NC2 | 0.064 | –
11 | N#Cc1cccc(NC(=O)Nc2ccc(-c3cccc4c3CNC4=O)cc2)c1 | 0.37 | –
12 | O=C(Nc1ccc(-c2cccc3c2CNC3=O)cc1)Nc1cc(C(F)(F)F)ccc1F | 0.023 | 0.15
13 | COc1ccc(-c2ccc(NC(=O)Nc3cccc(C)c3)cc2)c2c1C(=O)NC2 | 0.021 | 0.17
14 | Cc1cc(C)cc(NC(=O)Nc2ccc(-c3cccc4c3CNC4=O)cc2)c1 | 0.083 | –
15 | Cc1cccc(NC(=O)Nc2ccc(-c3ccc(NC(=O)c4cccnc4)c4c3CNC4=O)cc2)c1 | 0.01 | 0.011
16 | CCc1cc(-c2cccc3c2CNC3=O)ccc1NC(=O)Nc1cccc(C)c1 | 6 | –
17 | Cc1cccc(NC(=O)Nc2ccc(-c3cccc4c3CNC4=O)cc2F)c1 | 0.044 | –
18 | Cc1cccc(N(C)C(=O)Nc2ccc(-c3cccc4c3CNC4=O)cc2)c1 | 19 | –
19 | CC(C)OCc1ccc2c(c1)c1c3c(c4c(c1n2CCCCC(=O)N(C)C)Cc1ccccc1-4)C(=O)NC3 | 0.018 | –
20 | Cc1cccc(NC(=O)N(C)c2ccc(-c3cccc4c3CNC4=O)cc2)c1 | 1.1 | –

Row | SMILES | IC50 [1] [µM] | IC50 (NIH3T3) [µM]
21 | Cc1cccc(NC(=O)Nc2ccc(-c3cccc4c3CNC4=O)c(C(F)(F)F)c2)c1 | 9 | –
22 | Cc1cccc(NC(=O)Nc2ccc(-c3cccc4c3CNC4=O)c(F)c2)c1 | 0.052 | –
23 | Cc1cccc(NC(=O)Nc2c(C)cc(-c3cccc4c3CNC4=O)cc2C)c1 | > 50 | –
24 | Cc1cccc(NC(=O)Nc2ccc(-c3cccc4c3CNC4=O)c(C)c2)c1 | 0.77 | –
25 | O=C1NCc2c1cccc2-c1ccc(NS(=O)(=O)c2ccccc2)cc1 | > 50 | –
26 | O=C(Nc1ccccc1)Nc1ccc(-c2cccc3c2CNC3=O)cc1 | 1.8 | –
27 | Cc1cccc(NC(=O)Nc2ccc(-c3cccc4c3CNC4=O)cc2Cl)c1 | 0.03 | 0.099
28 | Cc1cccc(NC(=O)Nc2ccc(-c3cccc4c3CNC4=O)cc2)c1 | – | 0.27
29 | Cc1cccc(NC(=O)Nc2ccc(-c3cccc4c3CNC4=O)c(Cl)c2)c1 | 0.071 | –
30 | COc1cc(-c2nn([C@H]3CC[C@H](N4CCN(C)CC4)CC3)c3ncnc(N)c23)ccc1NC(=O)c1ccccc1 | > 0.05 | –
31 | Cc1cccc(NC(=O)Cc2ccc(-c3cccc4c3CNC4=O)cc2)c1 | 2.1 | –
32 | Cc1cccc(NC(=O)Nc2ccc(-c3ccc(NC(=O)CN(C)C)c4c3CNC4=O)cc2)c1 | 0.35 | –
33 | COc1cccc(NC(=O)Nc2ccc(-c3cccc4c3CNC4=O)cc2)c1 | 0.57 | –
34 | Cc1ccccc1NC(=O)Nc1ccc(-c2cccc3c2CNC3=O)cc1 | 4.4 | –
35 | O=C(Nc1ccc(-c2cccc3c2CNC3=O)cc1)c1ccccc1 | > 50 | –
36 | O=C(Nc1ccc(-c2cccc3c2CNC3=O)cc1)Nc1ccc(C(F)(F)F)cc1 | 0.161 | –
37 | COCCOc1ccc(-c2ccc(NC(=O)Nc3cccc(C)c3)cc2)c2c1C(=O)NC2 | 0.126 | –
38 | O=C(Nc1ccc(-c2cccc3c2CNC3=O)cc1)Nc1cccc(C(F)(F)F)c1 | 0.007 | 0.065
39 | O=C(Nc1ccc(-c2cccc3c2CNC3=O)cc1)Nc1ccc2c(c1)CCC2 | 0.039 | –
40 | CCc1cccc(NC(=O)Nc2ccc(-c3cccc4c3CNC4=O)cc2)c1 | 0.029 | –
